Assay results taken from article PMC8276662, “Synergy of alanine and gentamicin to reduce nitric oxide for elevating killing efficacy to antibiotic-resistant Vibrio alginolyticus” (Virulence, 2021).

Target: T1, CysJ (rCysJ; NOS-like protein) (Vibrio alginolyticus, UniProt A0A2I3CBL6)
T1 construct: dimer by blue native PAGE
T1 sequence (A0A2I3CBL6 1-623): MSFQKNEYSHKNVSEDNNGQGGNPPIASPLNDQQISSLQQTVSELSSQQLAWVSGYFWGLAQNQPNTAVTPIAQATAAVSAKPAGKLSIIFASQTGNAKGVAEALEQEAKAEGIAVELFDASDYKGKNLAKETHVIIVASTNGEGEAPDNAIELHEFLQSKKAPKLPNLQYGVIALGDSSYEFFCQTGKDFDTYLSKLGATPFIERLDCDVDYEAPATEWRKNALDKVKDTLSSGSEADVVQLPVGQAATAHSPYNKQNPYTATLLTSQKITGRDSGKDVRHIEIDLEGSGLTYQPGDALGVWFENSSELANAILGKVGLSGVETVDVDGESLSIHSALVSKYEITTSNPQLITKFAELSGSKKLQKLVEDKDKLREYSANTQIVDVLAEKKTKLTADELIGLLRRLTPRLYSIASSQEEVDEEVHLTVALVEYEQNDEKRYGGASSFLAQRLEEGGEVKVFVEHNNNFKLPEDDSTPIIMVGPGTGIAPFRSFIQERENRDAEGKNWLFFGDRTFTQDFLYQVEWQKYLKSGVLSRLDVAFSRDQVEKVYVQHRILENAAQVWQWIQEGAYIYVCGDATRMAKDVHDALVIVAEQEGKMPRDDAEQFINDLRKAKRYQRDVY
Assay: colorimetric nitric oxide synthase activity kit, A530
Assay type: biochemical
Conditions: 0.5 mM L-NMMA, preincubated 30 C 2 h (as described for lysate proteins); assay 37 C 15 min; mode not stated

Compound: CNC(=N)NCCC[C@H](N)C(=O)O [L-NMMA]
- activity of NOS was reduced: When L-NMMA was used, activity of NOS was reduced (Figure 8b).
